Experimental data taken from ChEMBL document CHEMBL1121672, “Folate antagonists. 19. Synthesis and antimalarial effects of 6-(arylthio)-2,4-pteridinediamines” (1981).
Values after ≈ are worked out from the molar mass of the structure shown.

Columns and labels:
Type in all cases: functional
Staphylococcus aureus [1] = experiment: Compound tested in vitro for antibacterial activity against Staphylococcus aureus (S18713)
Enterococcus faecalis = experiment: Compound tested in vitro for antibacterial activity against Streptococcus faecalis(MGH-2)
Staphylococcus aureus [2] = experiment: Compound tested in vitro for antibacterial activity against Staphylococcus aureus(UC-76)

SMILES | MIC (Staphylococcus aureus [1]) [µg/mL] | MIC (Enterococcus faecalis) [µg/mL] | MIC (Staphylococcus aureus [2]) [µg/mL]
Nc1nc(N)c2nc(Sc3cccc4ccccc34)cnc2n1 | 1.5 (≈ 4.68 µM) | < 0.25 | < 0.25
Nc1nc(N)c2nc(Sc3cc(Cl)c(Cl)cc3Cl)cnc2n1 | > 25 | 5 (≈ 13.4 µM) | > 25
Nc1nc(N)c2nc(Sc3ccc(Cl)c(Cl)c3)cnc2n1 | > 25 | 2 (≈ 5.9 µM) | > 25
Nc1nc(N)c2nc(Sc3cccc(C(F)(F)F)c3)cnc2n1 | < 0.25 | < 0.25 | < 0.25
CN(C)/C=N\c1nc(/N=C/N(C)C)nc2ncc(Sc3ccc(Cl)c(Cl)c3)nc12 | > 25 | < 0.25 | > 25
Nc1nc(N)c2nc(Sc3ccc4ccccc4c3)cnc2n1 | > 25 | 1.5 (≈ 4.68 µM) | > 25
COc1ccc(Sc2cnc3nc(N)nc(N)c3n2)cc1 | 2 (≈ 6.66 µM) | < 0.25 | 2 (≈ 6.66 µM)
